# Test results reported in patent US7510852B2, “Biosynthetic genes and host cells for the synthesis of polyketide antibiotics and method of use” (priority 2002, dated 2009).
# Key:
# [1] = tested on: prokaryotic DNA replication; conditions: Birch and Patil, 1985a; cited from earlier work
# [2] = tested on: E. coli DH5αKT clones that spontaneously grew within the growth inhibition zone of a pALB571-pOp3-4/XALB2-3 exconjugant; assay: Cross-resistance test: albicidin production assay with X. albilineans Xa23R1; format: cell-based, Escherichia coli; conditions: albicidin produced by X. albilineans Xa23R1; two clones as tester strains
# Experimental: Assay of albicidin production. Albicidin production was tested by a microbiological assay as described previously (Rott et al., 1996). Rifampicin and kanamycin exconjugants were spotted with sterile toothpicks (2-mm-diameter spots) onto plates of SPA medium (2% sucrose, 0.5% peptone, 1.5% agar) and incubated at 28° C. for 2-5 days. The plates were then overlaid with a mixture of E. coli DH5α (10^7 cells in 2 ml of distilled water) plus 2 ml of molten 1.5% (wt/vol) Noble agar (Difco) at ca. 65° C. and examined for inhibition zones after 24 h at 37 C.
# Two E. coli DH5αKT clones, that spontaneously grew within the growth inhibition zone of a X. axonopodis pv. vesicatoria pALB571-pOp3-4/XALB2-3 exconjugant on SPA+tetracycline medium, were isolated and tested for resistance to albicidin. […] Comparison of chemical characteristics of the two molecules will, however, be necessary to confirm that the two molecules are identical.
# [3] = tested on: chloroplast DNA replication; conditions: Birch and Patil, 1983-1987; cited from earlier work
# proteases = conditions: Birch and Patil, 1985a; cited from earlier work
# [4] = tested on: gram-positive and gram-negative bacteria; conditions: range of gram-positive and gram-negative bacteria; Birch and Patil, 1985a; cited from earlier work
substance,measurement,setting,value
albicidin,effect on prokaryotic DNA replication,[1],inhibits prokaryotic DNA replication
same,growth inhibition of clones resistant to the albicidin-like product,[2],No growth inhibition
same,effect on chloroplast DNA replication,[3],inhibits chloroplast DNA replication
same,sensitivity to proteases,proteases,insensitive to proteases
same,bactericidal activity,[4],bactericidal
